The text below walks through data of ChEMBL document CHEMBL1201862, “PubChem BioAssay data set” (2004).

Each structure is given as a SMILES string. Active and inactive are the calls of the source.

The target of assay [1] is Eukaryotic translation initiation factor 4H (Homo sapiens, UniProt Q15056). As to the kind of experiment: human eIF4H binding inhibitors, primary screen, translation initiation inhibitor project, biochemical, uHTS, fluorescence polarization (AID 2012). On the technique in general: Polarisation of emitted light reports the rotation of a fluorescent probe.
Assay [2] has as its target Polyadenylate-binding protein 1 (Homo sapiens, UniProt P11940). As to the kind of experiment: PABP poly(A) RNA binding inhibitors, primary screen, biochemical, fluorescence polarization, uHTS (AID 2014).
The target of assay [3] is T1, Tyrosine-protein phosphatase non-receptor type 7 (Homo sapiens, UniProt P35236).
T1 sequence (P35236 whole entry): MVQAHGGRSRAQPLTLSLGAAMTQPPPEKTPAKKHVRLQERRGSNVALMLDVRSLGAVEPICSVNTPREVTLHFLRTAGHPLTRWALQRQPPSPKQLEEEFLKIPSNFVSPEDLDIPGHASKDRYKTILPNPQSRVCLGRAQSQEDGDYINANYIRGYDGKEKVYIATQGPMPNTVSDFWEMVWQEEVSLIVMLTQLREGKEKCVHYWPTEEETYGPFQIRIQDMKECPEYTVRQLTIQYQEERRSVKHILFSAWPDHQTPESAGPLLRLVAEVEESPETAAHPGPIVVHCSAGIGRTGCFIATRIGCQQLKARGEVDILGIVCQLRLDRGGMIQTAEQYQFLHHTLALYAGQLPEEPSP
Type of assay: functional.

The target in assay [4] is Glyceraldehyde-3-phosphate dehydrogenase (Homo sapiens, UniProt P04406).
Sequence of Glyceraldehyde-3-phosphate dehydrogenase (P04406 whole entry): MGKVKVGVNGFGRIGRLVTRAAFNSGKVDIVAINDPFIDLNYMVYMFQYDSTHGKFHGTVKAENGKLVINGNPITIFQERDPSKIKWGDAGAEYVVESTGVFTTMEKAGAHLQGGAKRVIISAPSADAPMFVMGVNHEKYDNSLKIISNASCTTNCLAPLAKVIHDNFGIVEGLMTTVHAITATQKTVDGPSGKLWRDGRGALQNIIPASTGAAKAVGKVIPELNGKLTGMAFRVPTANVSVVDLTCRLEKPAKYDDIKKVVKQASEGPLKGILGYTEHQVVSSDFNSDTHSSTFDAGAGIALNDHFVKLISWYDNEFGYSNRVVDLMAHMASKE
Assay [5] deals with T2, Dual specificity protein phosphatase 6 (Rattus norvegicus, UniProt Q64346).
T2 sequence (Q64346 whole entry): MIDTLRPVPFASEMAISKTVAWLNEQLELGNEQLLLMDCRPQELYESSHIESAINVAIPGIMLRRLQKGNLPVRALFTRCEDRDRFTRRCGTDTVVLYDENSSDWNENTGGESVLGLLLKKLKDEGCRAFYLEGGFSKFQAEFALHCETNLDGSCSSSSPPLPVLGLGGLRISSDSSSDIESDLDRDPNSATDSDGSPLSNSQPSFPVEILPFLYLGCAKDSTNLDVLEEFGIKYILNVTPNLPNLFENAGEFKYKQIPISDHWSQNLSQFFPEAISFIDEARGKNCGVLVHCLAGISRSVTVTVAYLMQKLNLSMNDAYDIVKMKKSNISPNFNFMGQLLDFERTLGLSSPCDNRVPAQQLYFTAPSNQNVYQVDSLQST

For assay [6], the target named is T2, Dual specificity protein phosphatase 6. Type of assay: functional.
Assay [7] concerns the target DNA dC->dU-editing enzyme APOBEC-3A (Homo sapiens, UniProt P31941). As to the kind of experiment: APOBEC3A DNA deaminase inhibitors, dose response, biochemical (AID 504722). It is filed as functional.
For assay [8], the target named is DNA dC->dU-editing enzyme APOBEC-3G (Homo sapiens, UniProt Q9HC16). The assay can be described thus: Dose Response confirmation of small molecule APOBEC3G DNA Deaminase Inhibitors via a fluorescence-based single-stranded DNA deaminase assay. [Related pubchem assays (depositor defined):AID493012, AID493028]. It is filed as functional.
Sequence of DNA dC->dU-editing enzyme APOBEC-3G (Q9HC16 whole entry): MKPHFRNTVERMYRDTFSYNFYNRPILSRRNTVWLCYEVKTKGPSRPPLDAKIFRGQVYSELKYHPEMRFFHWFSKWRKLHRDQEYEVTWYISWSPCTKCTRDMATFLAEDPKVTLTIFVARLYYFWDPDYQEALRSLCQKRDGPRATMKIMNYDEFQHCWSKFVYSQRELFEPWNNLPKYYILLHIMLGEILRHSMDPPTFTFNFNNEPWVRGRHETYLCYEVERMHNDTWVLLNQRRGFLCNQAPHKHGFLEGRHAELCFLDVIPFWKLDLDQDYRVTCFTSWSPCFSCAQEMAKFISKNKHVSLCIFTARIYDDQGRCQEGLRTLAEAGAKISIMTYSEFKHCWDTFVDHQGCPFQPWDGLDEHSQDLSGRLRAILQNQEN
In assay [9] the target is Luciferin 4-monooxygenase (Photinus pyralis, UniProt P08659). As to the kind of experiment: Counter Screen for Luciferase-based Assay Positives. [Related pubchem assays: 620, 618, 411 ].
Sequence of Luciferin 4-monooxygenase (P08659 whole entry): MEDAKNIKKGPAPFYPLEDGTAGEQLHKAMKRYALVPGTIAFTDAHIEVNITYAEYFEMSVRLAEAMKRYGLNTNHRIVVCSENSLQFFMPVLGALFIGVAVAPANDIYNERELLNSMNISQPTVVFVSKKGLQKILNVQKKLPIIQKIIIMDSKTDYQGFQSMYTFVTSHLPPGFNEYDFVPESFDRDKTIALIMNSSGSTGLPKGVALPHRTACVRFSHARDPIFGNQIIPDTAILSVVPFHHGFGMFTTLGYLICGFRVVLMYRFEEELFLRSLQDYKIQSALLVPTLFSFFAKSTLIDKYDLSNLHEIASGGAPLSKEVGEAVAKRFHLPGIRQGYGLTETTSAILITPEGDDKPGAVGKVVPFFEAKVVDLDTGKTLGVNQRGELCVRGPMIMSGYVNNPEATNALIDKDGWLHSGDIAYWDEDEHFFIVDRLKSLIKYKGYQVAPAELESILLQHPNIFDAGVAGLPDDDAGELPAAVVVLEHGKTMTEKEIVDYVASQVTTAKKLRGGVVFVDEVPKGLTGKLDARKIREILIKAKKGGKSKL
Assay [10] has as its target T3, Heat shock factor protein 1 (Mus musculus, UniProt P38532).
T3 sequence (P38532 whole entry): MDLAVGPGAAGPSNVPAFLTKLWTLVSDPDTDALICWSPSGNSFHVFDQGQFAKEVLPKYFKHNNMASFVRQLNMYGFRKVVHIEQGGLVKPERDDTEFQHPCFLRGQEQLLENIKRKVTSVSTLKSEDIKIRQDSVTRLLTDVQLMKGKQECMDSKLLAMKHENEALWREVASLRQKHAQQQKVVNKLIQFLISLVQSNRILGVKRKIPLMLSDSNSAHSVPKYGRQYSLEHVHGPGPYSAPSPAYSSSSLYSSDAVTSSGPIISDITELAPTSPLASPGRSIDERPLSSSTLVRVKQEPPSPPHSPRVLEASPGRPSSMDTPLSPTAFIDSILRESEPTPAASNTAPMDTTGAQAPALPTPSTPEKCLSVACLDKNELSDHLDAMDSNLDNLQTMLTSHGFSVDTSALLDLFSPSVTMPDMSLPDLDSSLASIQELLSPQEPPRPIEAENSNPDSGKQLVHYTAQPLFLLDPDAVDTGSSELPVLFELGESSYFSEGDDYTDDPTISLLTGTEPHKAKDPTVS
The assay can be described thus: inhibition of MG132-induced HSE-luciferase signal, confirmation, cell-based, NIH3T3, luminescence, dose retest (AID 2382).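 Further: NIH3T3 fibroblasts with HSF1-driven luciferase reporter stressed by proteasome inhibitor MG132; luminescence from HSF1-driven luciferase expression after 8 hours of MG132 stress.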 Type of assay: functional.

For assay [11], the system named is HT-1080. The assay can be described thus: cytotoxicity in HT1080 fibrosarcoma cells, cell-based, fluorescence readout (AID 620). It is filed as functional. The conditions noted are these: Homo sapiens.
A short description of assay [12]: A549 cell cytotoxicity, dose response, cytotoxicity control, plate reader, cherry-pick, antagonist series (AID 743412). It is filed as functional, cell-based.
Assay [13] can be described thus: HepG2 cell cytotoxicity, dose response, cytotoxicity control, plate reader, cherry-pick, antagonist series (AID 743416). Type of assay: functional, cell-based.
Assay [14] is described as follows: LGR2 antagonists, dose response, cell-based, HEK293, CRE-luciferase reporter, cherry pick, set 2 (AID 743343).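 Further: transfected cells were stimulated with diluted bursicon conditioned medium after compound addition.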 It is filed as functional. A general note: A reporter such as luciferase makes a cellular process visible.
Assay [15] can be described thus: MC4R antagonists, dose response, counter-screen for LGR2 antagonist project, cell-based, plate reader, cherry pick (AID 743444).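 Further: transfected HEK 293 cells stimulated with alpha-MSH peptide; potency of inhibitors of the alpha-MSH evoked signal.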 Type of assay: functional.
Assay [16] concerns the target Melanin-concentrating hormone receptor 1 (Homo sapiens, UniProt Q99705). As to the kind of experiment: Late-stage fluorescence-based counterscreen for antagonists of the G-protein coupled receptor 7 (GPR7): cell-based dose response assay to identify antagonists of the melanin-concentrating hormone receptor 1 (MCHR1). [Related pubchem assays (depositor defined):AID1861, AID1880, AID1952, AID2148, AID2251, AID2257, AID485339]. It is filed as functional. In general terms: The purpose of a counterscreen is to sort out artefacts and off-target activity.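 Further: stimulated with 30 nM MCH peptide agonist.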

For assay [17], the target named is T4, Leucine aminopeptidase (Plasmodium falciparum 3D7, UniProt Q8IL11).
T4 sequence (Q8IL11 whole entry): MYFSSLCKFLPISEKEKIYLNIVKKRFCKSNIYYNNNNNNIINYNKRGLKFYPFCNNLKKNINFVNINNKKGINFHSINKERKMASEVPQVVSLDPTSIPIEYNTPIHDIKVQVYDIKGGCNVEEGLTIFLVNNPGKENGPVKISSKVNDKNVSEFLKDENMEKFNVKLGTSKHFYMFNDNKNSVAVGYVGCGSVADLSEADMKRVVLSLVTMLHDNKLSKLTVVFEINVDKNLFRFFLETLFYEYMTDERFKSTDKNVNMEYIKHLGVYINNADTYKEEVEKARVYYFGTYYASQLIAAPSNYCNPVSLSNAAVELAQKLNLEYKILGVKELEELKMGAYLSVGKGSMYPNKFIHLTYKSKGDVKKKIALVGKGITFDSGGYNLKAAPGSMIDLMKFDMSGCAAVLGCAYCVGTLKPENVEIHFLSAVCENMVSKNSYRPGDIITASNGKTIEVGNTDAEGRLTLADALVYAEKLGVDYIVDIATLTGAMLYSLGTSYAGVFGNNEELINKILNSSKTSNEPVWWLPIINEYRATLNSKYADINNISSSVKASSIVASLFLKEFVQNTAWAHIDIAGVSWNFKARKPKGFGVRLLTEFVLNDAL
The assay can be described thus: P. falciparum M17LAP inhibitors, primary screen, biochemical, fluorogenic H-Leu-NHMec substrate, 1536-well (AID 1619). It is filed as functional.

Assay [18] deals with T5, RNA-binding protein pos-1 (Caenorhabditis elegans, UniProt G5EF15).
T5 sequence (G5EF15 whole entry): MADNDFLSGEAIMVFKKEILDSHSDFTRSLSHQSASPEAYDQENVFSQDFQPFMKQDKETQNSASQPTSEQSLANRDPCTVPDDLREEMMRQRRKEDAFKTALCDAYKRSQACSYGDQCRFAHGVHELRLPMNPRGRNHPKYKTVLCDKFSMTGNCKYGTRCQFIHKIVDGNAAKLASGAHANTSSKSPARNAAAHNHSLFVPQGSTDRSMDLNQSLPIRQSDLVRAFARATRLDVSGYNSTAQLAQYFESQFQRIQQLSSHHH
The assay can be described thus: inhibitors of POS-1/mex-3 RNA binding, dose response, biochemical, fluorescence polarization (AID 1964).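 Further: purified POS-1 fused to maltose binding protein made in E. coli; potency of compounds blocking POS-1 binding to fluorescent RNA.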

Assay [19] concerns the target T6, SUMO-activating enzyme (Homo sapiens, UniProt Q9UBT2). As to the kind of experiment: SUMOylation inhibitor hit validation, confirmation, SUMOylation inhibitor project, biochemical, AlphaScreen (AID 2018). It is filed as functional.
Assay [20] addresses T7, Zinc finger protein mex-5 (Caenorhabditis elegans, UniProt Q9XUB2).
T7 sequence (Q9XUB2 whole entry): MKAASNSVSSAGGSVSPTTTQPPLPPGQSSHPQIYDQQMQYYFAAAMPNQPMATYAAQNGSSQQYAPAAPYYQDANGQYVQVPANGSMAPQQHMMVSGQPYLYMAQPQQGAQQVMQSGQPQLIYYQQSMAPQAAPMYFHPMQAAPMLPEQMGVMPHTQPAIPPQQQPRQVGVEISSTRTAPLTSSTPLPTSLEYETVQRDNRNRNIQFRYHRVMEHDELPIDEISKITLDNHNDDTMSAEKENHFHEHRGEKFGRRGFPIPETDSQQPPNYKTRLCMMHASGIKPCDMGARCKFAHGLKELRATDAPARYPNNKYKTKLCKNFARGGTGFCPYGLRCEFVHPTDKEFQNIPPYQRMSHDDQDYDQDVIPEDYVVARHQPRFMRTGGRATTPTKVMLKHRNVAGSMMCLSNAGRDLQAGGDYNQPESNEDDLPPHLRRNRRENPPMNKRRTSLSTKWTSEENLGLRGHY
The assay can be described thus: MEX-5/TCR-2 RNA interaction inhibitors, dose response, biochemical, C. elegans, fluorescence polarization (AID 1960).

The target of assay [21] is T6, SUMO-activating enzyme. The assay can be described thus: inhibitors of in vitro SUMOylation cascade, primary screen, biochemical, HTRF, uHTS (AID 2006). It is filed as protein-complex assay.
For assay [22], the target named is Eukaryotic translation initiation factor 4E (Mus musculus, UniProt P63073). As to the kind of experiment: eIF4E–eIF4G protein interaction inhibitors, dose response, biochemical, TR-FRET (AID 855).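 Further: potency for disrupting eIF4E binding to eIF4GI seen as loss of FRET.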 Type of assay: functional.
Sequence of Eukaryotic translation initiation factor 4E (P63073 whole entry): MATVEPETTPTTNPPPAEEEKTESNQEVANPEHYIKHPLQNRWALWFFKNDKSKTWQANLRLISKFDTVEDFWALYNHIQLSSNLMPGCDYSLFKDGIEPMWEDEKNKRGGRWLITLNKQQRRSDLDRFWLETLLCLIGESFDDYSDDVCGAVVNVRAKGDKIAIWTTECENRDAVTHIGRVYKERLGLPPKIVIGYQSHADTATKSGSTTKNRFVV
For assay [23], the target named is T8, Caspase-6 (Homo sapiens, UniProt P55212).
T8 sequence (P55212 whole entry): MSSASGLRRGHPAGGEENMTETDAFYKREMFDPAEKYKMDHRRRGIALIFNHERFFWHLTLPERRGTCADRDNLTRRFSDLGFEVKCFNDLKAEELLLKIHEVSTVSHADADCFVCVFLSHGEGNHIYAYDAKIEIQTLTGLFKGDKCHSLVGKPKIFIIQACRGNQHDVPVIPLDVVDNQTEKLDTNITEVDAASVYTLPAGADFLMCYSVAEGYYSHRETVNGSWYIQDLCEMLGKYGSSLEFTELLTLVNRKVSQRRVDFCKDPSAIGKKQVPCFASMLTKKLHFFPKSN
As to the kind of experiment: human caspase-6 inhibitors, dose response, biochemical, VEID-R110 fluorescence, cherry-pick (AID 720632).

Sequence of Polyadenylate-binding protein 1 (P11940 whole entry): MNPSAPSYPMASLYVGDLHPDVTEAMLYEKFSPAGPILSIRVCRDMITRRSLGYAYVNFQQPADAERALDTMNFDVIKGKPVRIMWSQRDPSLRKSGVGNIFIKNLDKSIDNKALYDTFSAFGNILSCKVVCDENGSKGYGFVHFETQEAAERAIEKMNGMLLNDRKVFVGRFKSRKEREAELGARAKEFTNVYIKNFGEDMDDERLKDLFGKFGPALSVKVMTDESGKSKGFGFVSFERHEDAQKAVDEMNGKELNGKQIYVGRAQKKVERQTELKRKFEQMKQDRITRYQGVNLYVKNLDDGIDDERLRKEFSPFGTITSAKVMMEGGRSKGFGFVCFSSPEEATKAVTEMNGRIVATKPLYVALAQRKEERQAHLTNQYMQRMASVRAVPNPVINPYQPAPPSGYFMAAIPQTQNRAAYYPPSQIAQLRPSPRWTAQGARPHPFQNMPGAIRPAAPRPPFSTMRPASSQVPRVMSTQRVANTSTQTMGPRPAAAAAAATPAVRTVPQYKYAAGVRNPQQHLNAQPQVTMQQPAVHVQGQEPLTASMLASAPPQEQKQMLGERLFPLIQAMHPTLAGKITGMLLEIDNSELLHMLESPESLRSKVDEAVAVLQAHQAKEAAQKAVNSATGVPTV
Sequence of DNA dC->dU-editing enzyme APOBEC-3A (P31941 whole entry): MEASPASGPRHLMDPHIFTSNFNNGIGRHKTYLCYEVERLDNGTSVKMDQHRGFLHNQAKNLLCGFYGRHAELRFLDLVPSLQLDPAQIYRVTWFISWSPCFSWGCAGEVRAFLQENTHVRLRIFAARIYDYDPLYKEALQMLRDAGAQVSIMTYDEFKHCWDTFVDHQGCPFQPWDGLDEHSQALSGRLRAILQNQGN
T6 sequence (Q9UBE0 whole entry): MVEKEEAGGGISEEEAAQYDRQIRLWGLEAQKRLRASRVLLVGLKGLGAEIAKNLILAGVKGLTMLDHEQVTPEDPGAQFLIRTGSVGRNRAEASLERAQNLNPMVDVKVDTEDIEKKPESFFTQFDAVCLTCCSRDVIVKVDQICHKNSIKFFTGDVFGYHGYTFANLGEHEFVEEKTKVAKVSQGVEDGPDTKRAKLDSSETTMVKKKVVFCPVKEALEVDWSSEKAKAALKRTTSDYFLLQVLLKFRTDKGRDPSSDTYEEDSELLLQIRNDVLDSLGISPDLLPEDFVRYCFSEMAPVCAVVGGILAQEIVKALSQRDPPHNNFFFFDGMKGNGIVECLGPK
T6 sequence (Q9UBT2 whole entry): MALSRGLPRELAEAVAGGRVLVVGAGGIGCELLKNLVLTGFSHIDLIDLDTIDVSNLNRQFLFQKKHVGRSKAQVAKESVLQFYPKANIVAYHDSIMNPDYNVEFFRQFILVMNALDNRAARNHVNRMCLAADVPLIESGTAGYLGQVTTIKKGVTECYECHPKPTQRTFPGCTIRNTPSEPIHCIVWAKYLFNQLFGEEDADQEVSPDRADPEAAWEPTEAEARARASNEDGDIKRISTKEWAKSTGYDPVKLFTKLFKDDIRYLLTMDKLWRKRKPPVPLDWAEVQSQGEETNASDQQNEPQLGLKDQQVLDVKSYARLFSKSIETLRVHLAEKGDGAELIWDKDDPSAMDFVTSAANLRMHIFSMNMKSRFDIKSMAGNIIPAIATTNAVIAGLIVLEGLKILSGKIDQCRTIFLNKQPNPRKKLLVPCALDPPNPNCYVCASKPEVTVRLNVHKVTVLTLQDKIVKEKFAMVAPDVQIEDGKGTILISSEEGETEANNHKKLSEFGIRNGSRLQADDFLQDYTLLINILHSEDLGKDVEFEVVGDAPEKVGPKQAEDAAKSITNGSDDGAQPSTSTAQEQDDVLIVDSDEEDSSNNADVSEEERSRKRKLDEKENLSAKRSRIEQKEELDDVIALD
Sequence of Melanin-concentrating hormone receptor 1 (Q99705 whole entry): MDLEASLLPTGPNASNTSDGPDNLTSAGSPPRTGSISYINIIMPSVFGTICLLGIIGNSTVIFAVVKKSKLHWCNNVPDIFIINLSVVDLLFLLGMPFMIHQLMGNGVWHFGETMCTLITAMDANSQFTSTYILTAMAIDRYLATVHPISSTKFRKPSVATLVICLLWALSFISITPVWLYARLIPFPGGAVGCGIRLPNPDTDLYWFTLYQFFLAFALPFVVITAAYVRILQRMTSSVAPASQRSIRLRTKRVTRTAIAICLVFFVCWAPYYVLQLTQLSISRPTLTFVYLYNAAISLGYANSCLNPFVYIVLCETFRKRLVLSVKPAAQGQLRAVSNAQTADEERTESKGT

For orientation: IC50 means the midpoint of a concentration-inhibition curve. As to `O=C(CCS(=O)(=O)c1ccc(Br)cc1)N1CCN(c2ccc(F)cc2)CC1`, the IC50 in [1] was 24.2 µM (active); in assay [2] it was > 100 µM (inactive).
In the case of `Cc1cc(O)c2c(c1)C1C=CCC1C(C(=O)O)N2` (stereo unspecified), the IC50 in assay [3] was 2.41 µM (active); in assay [4] it was > 100 µM (not active); in [5], > 100 µM (inactive); in assay [6], > 100 µM (inactive).
In the case of `CN(CC(=O)NC(=O)NCc1ccco1)CC(=O)Nc1ccccc1Cl`, the IC50 in [1] is 20.5 µM (active); in [2], 60.8 µM (active).
Consider `O=C(O)C1Nc2c(cccc2S(=O)(=O)c2ccccc2)C2C=CCC12` (stereo unspecified), for which the IC50 in [3] is 11 µM (active); in assay [4], 56.4 µM (active); in [5], 52.2 µM (active); in assay [6], 58.7 µM (active).
As for `COCc1cc(C)c(C#N)c(S)n1`, the IC50 in assay [7] was > 100 µM (inactive); in assay [8], 14.1 µM (active).
Turning to `Cc1ccccc1SCC(=O)N1CCN(c2ccc(C(F)(F)F)cn2)CC1`, the IC50 in [1] and in assay [2] was > 100 µM (inactive) in each case.
As to `Cc1ccc(C(=O)OCC(=O)NC2CCCCC2)o1`, the IC50 is 51 µM (active) in assay [1] and 63 µM (active) in assay [2].
In general, EC50 refers to the midpoint of the concentration-response curve. Usually AC50 stands for the midpoint of the concentration-response curve, whichever way the signal moves. In the case of `Cc1oc(-c2ccc3c(c2)OCCO3)cc1C(=O)O`, the EC50 is 1.25 µM (active) in [9], 0.312 µM (active) in assay [10] and > 50 µM (not active) in [11]. Also, the AC50 in [12] is > 52 µM (inactive); in [13] it was > 52 µM (inactive); in assay [14], 7.05 µM (active); in assay [15] it was 7.49 µM (active).
For the compound `CC(C)c1ccc(-n2ncc(Cl)c(Oc3ccc(OC(F)(F)F)cc3)c2=O)cc1`, the IC50 in [16] was 12 µM (inactive).
Consider `COc1ccc(Oc2c(-c3ccco3)cnn(-c3ccc(C)cc3)c2=O)cc1`, for which the IC50 in assay [16] is 13.5 µM (inactive).
With `Cc1cc(/C=N/Nc2ccc([N+](=O)[O-])cn2)c(C)n1-c1ccc(C(=O)O)cc1`, the IC50 in assay [17] was 12.7 µM (active); in assay [19], 6.16 µM (active); in [21] it was 29 µM (active); in [22], 50 µM (inactive). Besides, the half-maximal effective concentration (EC50) in assay [18] is > 300 µM (not active); in assay [20] it was 111 µM (active). In assay [23], the AC50 is 5.03 µM (active).
As to `CC(/C=N/n1c(S)nnc1-c1cccnc1)=C\c1ccco1`, the IC50 in assay [7] was > 100 µM (inactive); in assay [8], 1.93 µM (active).
